In brackets after ≈: the same amount, converted by molar mass.

As usually defined, the MIC is the least concentration at which growth counts as inhibited. The low end stands for greater potency, the high end for weaker potency.

The first assay concerns Staphylococcus aureus. Briefly: In vitro antibacterial activity against methicillin-resistant Staphylococcus aureus (MRSA) C6068. Format: functional.
Compound `CC(=O)NC[C@H]1CN(c2ccc(N3CCN(C(=O)c4cc(COC(=O)N(C)C)no4)CC3)c(F)c2)C(=O)O1` came in with an MIC of 2 µg/mL (≈ 3.76 µM).

`CC(=O)NC[C@H]1CN(c2ccc(N3CCN(Cc4cc(-c5ccc(Cl)cc5)no4)CC3)c(F)c2)C(=O)O1` came in with an MIC of 16 µg/mL (≈ 30.3 µM).

The compound `CC(=O)NC[C@H]1CN(c2ccc(N3CCN(Cc4cc(-c5ccc(Oc6ccccc6)cc5)no4)CC3)c(F)c2)C(=O)O1` yielded an MIC of 4 µg/mL (≈ 6.83 µM).

Take `CC(=O)NC[C@H]1CN(c2ccc(N3CCN(C(=O)c4cc(-c5csnn5)no4)CC3)c(F)c2)C(=O)O1`: the MIC was 1 µg/mL (≈ 1.94 µM).

For the next assay, the system named is Staphylococcus epidermidis. Briefly: In vitro antibacterial activity against Staphylococcus epidermis (S.e.1) […]. Format: functional.
Regarding `CC(=O)NC[C@H]1CN(c2ccc(N3CCN(C(=O)c4cc(COC(=O)N(C)C)no4)CC3)c(F)c2)C(=O)O1`, inhibition of growth (MIC) required 1 µg/mL (≈ 1.88 µM).

The compound `CC(=O)NC[C@H]1CN(c2ccc(N3CCN(Cc4cc(-c5ccc(Cl)cc5)no4)CC3)c(F)c2)C(=O)O1` yielded a minimal inhibitory concentration (MIC) of 16 µg/mL (≈ 30.3 µM).

`CC(=O)NC[C@H]1CN(c2ccc(N3CCN(Cc4cc(-c5ccc(Oc6ccccc6)cc5)no4)CC3)c(F)c2)C(=O)O1` had an MIC of 2 µg/mL (≈ 3.42 µM).

The compound `CC(=O)NC[C@H]1CN(c2ccc(N3CCN(C(=O)c4cc(-c5csnn5)no4)CC3)c(F)c2)C(=O)O1` gave a minimal inhibitory concentration (MIC) of 0.5 µg/mL (≈ 0.97 µM).

The test system of a further assay is Streptococcus pyogenes. Briefly: In vitro antibacterial activity against Streptococcus pyogenes ATCC 8668 (S.p.1). In kind it is functional.
For `CC(=O)NC[C@H]1CN(c2ccc(N3CCN(C(=O)c4cc(COC(=O)N(C)C)no4)CC3)c(F)c2)C(=O)O1`, the MIC is 0.5 µg/mL (≈ 0.939 µM).

With `CC(=O)NC[C@H]1CN(c2ccc(N3CCN(Cc4cc(-c5ccc(Cl)cc5)no4)CC3)c(F)c2)C(=O)O1`, inhibition of growth (MIC) required 4 µg/mL (≈ 7.58 µM).

In turn, `CC(=O)NC[C@H]1CN(c2ccc(N3CCN(Cc4cc(-c5ccc(Oc6ccccc6)cc5)no4)CC3)c(F)c2)C(=O)O1` yielded an MIC of 1 µg/mL (≈ 1.71 µM).

In turn, `CC(=O)NC[C@H]1CN(c2ccc(N3CCN(C(=O)c4cc(-c5csnn5)no4)CC3)c(F)c2)C(=O)O1` displayed an MIC of 0.5 µg/mL (≈ 0.97 µM).

In a further assay the test system is Enterococcus faecium. Briefly: In vitro antibacterial activity against vancomycin-resistant Enterococcus faecium C6487 (VRE). In kind it is functional.
In turn, `CC(=O)NC[C@H]1CN(c2ccc(N3CCN(C(=O)c4cc(COC(=O)N(C)C)no4)CC3)c(F)c2)C(=O)O1` returned an MIC of 2 µg/mL (≈ 3.76 µM).

`CC(=O)NC[C@H]1CN(c2ccc(N3CCN(Cc4cc(-c5ccc(Cl)cc5)no4)CC3)c(F)c2)C(=O)O1` returned an MIC of 32 µg/mL (≈ 60.6 µM).

For `CC(=O)NC[C@H]1CN(c2ccc(N3CCN(Cc4cc(-c5ccc(Oc6ccccc6)cc5)no4)CC3)c(F)c2)C(=O)O1`, inhibition of growth (MIC) required 4 µg/mL (≈ 6.83 µM).

As to `CC(=O)NC[C@H]1CN(c2ccc(N3CCN(C(=O)c4cc(-c5csnn5)no4)CC3)c(F)c2)C(=O)O1`, the MIC came to 1 µg/mL (≈ 1.94 µM).

For a further assay, the system named is Staphylococcus epidermidis. The assay can be described thus: In vitro antibacterial activity against Staphylococcus epidermis (S.e.2) C2235. In kind it is functional.
In turn, `CC(=O)NC[C@H]1CN(c2ccc(N3CCN(C(=O)c4cc(COC(=O)N(C)C)no4)CC3)c(F)c2)C(=O)O1` showed a minimal inhibitory concentration (MIC) of 2 µg/mL (≈ 3.76 µM).

On to `CC(=O)NC[C@H]1CN(c2ccc(N3CCN(Cc4cc(-c5ccc(Cl)cc5)no4)CC3)c(F)c2)C(=O)O1`, for which inhibition of growth (MIC) required 32 µg/mL (≈ 60.6 µM).

Consider `CC(=O)NC[C@H]1CN(c2ccc(N3CCN(Cc4cc(-c5ccc(Oc6ccccc6)cc5)no4)CC3)c(F)c2)C(=O)O1`, for which inhibition of growth (MIC) required 4 µg/mL (≈ 6.83 µM).

As for `CC(=O)NC[C@H]1CN(c2ccc(N3CCN(C(=O)c4cc(-c5csnn5)no4)CC3)c(F)c2)C(=O)O1`, the MIC was determined as 1 µg/mL (≈ 1.94 µM).

The subject of a further assay is Staphylococcus aureus. The assay can be described thus: In vitro antibacterial activity against Staphylococcus aureus (S. a.) ATCC 29213. In kind it is functional.
In turn, `CC(=O)NC[C@H]1CN(c2ccc(N3CCN(C(=O)c4cc(COC(=O)N(C)C)no4)CC3)c(F)c2)C(=O)O1` registered an MIC of 4 µg/mL (≈ 7.51 µM).

As to `CC(=O)NC[C@H]1CN(c2ccc(N3CCN(Cc4cc(-c5ccc(Cl)cc5)no4)CC3)c(F)c2)C(=O)O1`, the minimum inhibitory concentration (MIC) is more than 32 µg/mL.

In turn, `CC(=O)NC[C@H]1CN(c2ccc(N3CCN(Cc4cc(-c5ccc(Oc6ccccc6)cc5)no4)CC3)c(F)c2)C(=O)O1` showed an MIC of 8 µg/mL (≈ 13.7 µM).

As for `CC(=O)NC[C@H]1CN(c2ccc(N3CCN(C(=O)c4cc(-c5csnn5)no4)CC3)c(F)c2)C(=O)O1`, it took 2 µg/mL (≈ 3.88 µM) to inhibit growth (MIC).

In the next assay the test system is Enterococcus faecalis. The assay can be described thus: In vitro antibacterial activity against Enterococcus faecalis C6291 (E.f.1). In kind it is functional.
As to `CC(=O)NC[C@H]1CN(c2ccc(N3CCN(C(=O)c4cc(COC(=O)N(C)C)no4)CC3)c(F)c2)C(=O)O1`, it took 2 µg/mL (≈ 3.76 µM) to inhibit growth (MIC).

As for `CC(=O)NC[C@H]1CN(c2ccc(N3CCN(Cc4cc(-c5ccc(Cl)cc5)no4)CC3)c(F)c2)C(=O)O1`, the MIC is more than 32 µg/mL.

Take `CC(=O)NC[C@H]1CN(c2ccc(N3CCN(Cc4cc(-c5ccc(Oc6ccccc6)cc5)no4)CC3)c(F)c2)C(=O)O1`: it took 4 µg/mL (≈ 6.83 µM) to inhibit growth (MIC).

For the compound `CC(=O)NC[C@H]1CN(c2ccc(N3CCN(C(=O)c4cc(-c5csnn5)no4)CC3)c(F)c2)C(=O)O1`, it took 1 µg/mL (≈ 1.94 µM) to inhibit growth (MIC).

Another assay has as its system Enterococcus faecium. The assay can be described thus: In vitro antibacterial activity against Enterococcus faecium C6301 (E.f.2). In kind it is functional.
In the case of `CC(=O)NC[C@H]1CN(c2ccc(N3CCN(C(=O)c4cc(COC(=O)N(C)C)no4)CC3)c(F)c2)C(=O)O1`, it took 2 µg/mL (≈ 3.76 µM) to inhibit growth (MIC).

Regarding `CC(=O)NC[C@H]1CN(c2ccc(N3CCN(Cc4cc(-c5ccc(Cl)cc5)no4)CC3)c(F)c2)C(=O)O1`, 32 µg/mL (≈ 60.6 µM) was the least that counted as inhibitory (MIC).

`CC(=O)NC[C@H]1CN(c2ccc(N3CCN(Cc4cc(-c5ccc(Oc6ccccc6)cc5)no4)CC3)c(F)c2)C(=O)O1` came in with a minimum inhibitory concentration (MIC) of 4 µg/mL (≈ 6.83 µM).

The compound `CC(=O)NC[C@H]1CN(c2ccc(N3CCN(C(=O)c4cc(-c5csnn5)no4)CC3)c(F)c2)C(=O)O1` yielded a minimum inhibitory concentration (MIC) of 1 µg/mL (≈ 1.94 µM).

For a further assay, the system named is Staphylococcus aureus. The assay can be described thus: In vitro antibacterial activity against ciprofloxacin-resistant Staphylococcus aureus (CRSA) C6043. In kind it is functional.
Compound `CC(=O)NC[C@H]1CN(c2ccc(N3CCN(C(=O)c4cc(COC(=O)N(C)C)no4)CC3)c(F)c2)C(=O)O1` had an MIC of 4 µg/mL (≈ 7.51 µM).

Consider `CC(=O)NC[C@H]1CN(c2ccc(N3CCN(Cc4cc(-c5ccc(Cl)cc5)no4)CC3)c(F)c2)C(=O)O1`, for which the MIC is more than 32 µg/mL.

`CC(=O)NC[C@H]1CN(c2ccc(N3CCN(Cc4cc(-c5ccc(Oc6ccccc6)cc5)no4)CC3)c(F)c2)C(=O)O1` registered an MIC of 8 µg/mL (≈ 13.7 µM).

`CC(=O)NC[C@H]1CN(c2ccc(N3CCN(C(=O)c4cc(-c5csnn5)no4)CC3)c(F)c2)C(=O)O1` came in with a minimal inhibitory concentration (MIC) of 2 µg/mL (≈ 3.88 µM).

The test system of another assay is Staphylococcus aureus. The assay can be described thus: In vitro antibacterial activity against methicillin-susceptible Staphylococcus aureus (MSSA) C2214. Format: functional.
Compound `CC(=O)NC[C@H]1CN(c2ccc(N3CCN(C(=O)c4cc(COC(=O)N(C)C)no4)CC3)c(F)c2)C(=O)O1` returned an MIC of 4 µg/mL (≈ 7.51 µM).

`CC(=O)NC[C@H]1CN(c2ccc(N3CCN(Cc4cc(-c5ccc(Cl)cc5)no4)CC3)c(F)c2)C(=O)O1` yielded an MIC of 32 µg/mL (≈ 60.6 µM).

With `CC(=O)NC[C@H]1CN(c2ccc(N3CCN(Cc4cc(-c5ccc(Oc6ccccc6)cc5)no4)CC3)c(F)c2)C(=O)O1`, the lowest concentration to inhibit growth (MIC) was 8 µg/mL (≈ 13.7 µM).

Compound `CC(=O)NC[C@H]1CN(c2ccc(N3CCN(C(=O)c4cc(-c5csnn5)no4)CC3)c(F)c2)C(=O)O1` showed an MIC of 2 µg/mL (≈ 3.88 µM).

Another assay relates to Streptococcus pyogenes. Briefly: In vitro antibacterial activity against Streptococcus pyogenes C6003 (S.p.2). Format: functional.
`CC(=O)NC[C@H]1CN(c2ccc(N3CCN(C(=O)c4cc(COC(=O)N(C)C)no4)CC3)c(F)c2)C(=O)O1` gave an MIC of 0.5 µg/mL (≈ 0.939 µM).

The compound `CC(=O)NC[C@H]1CN(c2ccc(N3CCN(Cc4cc(-c5ccc(Cl)cc5)no4)CC3)c(F)c2)C(=O)O1` came in with a minimum inhibitory concentration (MIC) of 4 µg/mL (≈ 7.58 µM).

As for `CC(=O)NC[C@H]1CN(c2ccc(N3CCN(Cc4cc(-c5ccc(Oc6ccccc6)cc5)no4)CC3)c(F)c2)C(=O)O1`, the MIC worked out at 1 µg/mL (≈ 1.71 µM).

Regarding `CC(=O)NC[C@H]1CN(c2ccc(N3CCN(C(=O)c4cc(-c5csnn5)no4)CC3)c(F)c2)C(=O)O1`, the MIC amounted to 0.5 µg/mL (≈ 0.97 µM).
